The text below walks through data of ChEMBL document CHEMBL1137072, “Peptide deformylase inhibitors with activity against respiratory tract pathogens” (Bioorg Med Chem Lett, 2004).

In brackets after ≈: the same amount, converted by molar mass.

One may read the IC50 as the concentration at which inhibition is half-maximal. Low readings indicate greater potency, high ones weaker potency.

Assay [1] concerns Moraxella catarrhalis. Description: Minimum inhibitory concentration required for primary screening against in-house strain of Moraxella catarrhalis tested in vitro. The class given is functional.
Another assay concerns the target T1, Peptide deformylase (Escherichia coli, UniProt Q9JN24).
T1 sequence (Q9JN24 whole entry): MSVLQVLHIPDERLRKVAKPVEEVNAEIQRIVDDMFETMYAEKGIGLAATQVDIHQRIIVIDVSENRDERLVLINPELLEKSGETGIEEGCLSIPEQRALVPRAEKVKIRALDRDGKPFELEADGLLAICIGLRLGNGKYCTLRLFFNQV
Description: Inhibitory activity against Escherichia coli peptide deformylase (PDF) Nickel containing enzyme.

Assay [2] relates to Streptococcus pneumoniae. Description: Minimum inhibitory concentration required for primary screening against in-house strain of Streptococcus pneumoniae tested in vitro. The class given is functional.
In assay [3] the test system is Haemophilus influenzae. In words: Minimum inhibitory concentration required for primary screening against in-house strain of Haemophilus influenzae tested in vitro; Range- 0.125-2. It is filed as functional.
Assay [4] concerns Haemophilus influenzae. In words: Minimum inhibitory concentration required for primary screening against in-house strain of Haemophilus influenzae tested in vitro; Range- 0.25-2. It is filed as functional.
The subject of assay [5] is Streptococcus pneumoniae. In words: Minimum inhibitory concentration required for primary screening against in-house strain of Streptococcus pneumoniae tested in vitro; Range- <0.125-0.25. It is filed as functional.
The test system of assay [6] is Streptococcus pneumoniae. Description: Minimum inhibitory concentration required for primary screening against in-house strain of Streptococcus pneumoniae tested in vitro; Range- 0.5-1. It is filed as functional.
The test system of assay [7] is Haemophilus influenzae. In words: Minimum inhibitory concentration required for primary screening against in-house strain of Haemophilus influenzae tested in vitro; Range- 0.5-2. The class given is functional.
The test system of assay [8] is Streptococcus pneumoniae. Description: Minimum inhibitory concentration required for primary screening against in-house strain of Streptococcus pneumoniae tested in vitro; Range- 0.25-0.5. The class given is functional.
The next assay concerns Staphylococcus capitis. Description: Minimum inhibitory concentration required for primary screening against in-house strain of Staphylococcus capitis tested in vitro. The class given is functional.
Assay [9] concerns Haemophilus influenzae. In words: Minimum inhibitory concentration required for primary screening against in-house strain of Haemophilus influenzae tested in vitro; Range- 0.5-4. It is filed as functional.
The subject of assay [10] is Moraxella catarrhalis. In words: Minimum inhibitory concentration required for primary screening against in-house strain of Moraxella catarrhalis tested in vitro; Range = 0.125-0.25. The class given is functional.
Assay [11] has as its system Haemophilus influenzae. In words: Minimum inhibitory concentration required for primary screening against in-house strain of Haemophilus influenzae tested in vitro; Range- 2-4. It is filed as functional.
In assay [12] the test system is Moraxella catarrhalis. In words: Minimum inhibitory concentration required for primary screening against in-house strain of Moraxella catarrhalis tested in vitro; Range- 0.125-0.25. The class given is functional.
In assay [13] the test system is Streptococcus pneumoniae. In words: Minimum inhibitory concentration required for primary screening against in-house strain of Streptococcus pneumoniae tested in vitro; Range- 0.25-1. The class given is functional.
For assay [14], the system named is Haemophilus influenzae. Description: Minimum inhibitory concentration required for primary screening against in-house strain of Haemophilus influenzae tested in vitro; Range- 0.125-4. It is filed as functional.
Assay [15] concerns Streptococcus pneumoniae. In words: Minimum inhibitory concentration required for primary screening against in-house strain of Streptococcus pneumoniae tested in vitro; Range- 0.25-0.5.
A further assay relates to Escherichia coli. Description: Minimum inhibitory concentration required for primary screening against in-house strain of Escherichia coli tested in vitro. It is filed as functional.
In assay [16] the test system is Haemophilus influenzae. Description: microbe, parasite or virus in culture.
Description: Minimum inhibitory concentration required for primary screening against in-house strain of Haemophilus influenzae tested in vitro; Range- 0.004-1
Assay [17] has as its system Moraxella catarrhalis. Description: microbe, parasite or virus in culture.
Assay [18] relates to Streptococcus pneumoniae. In words: microbe, parasite or virus in culture.
Description: Minimum inhibitory concentration required for primary screening against in-house strain of Streptococcus pneumoniae tested in vitro; Range- 0.2-128
For assay [19], the system named is Streptococcus pneumoniae. Description: Minimum inhibitory concentration required for primary screening against in-house strain of Streptococcus pneumoniae tested in vitro; Range-0.008-2. The class given is functional.

Take `CC(C)(C)[C@H](NC(=O)[C@H](CC1CCCC1)CN(O)C=O)C(=O)c1ccc(N2CCC(O)CC2)c(F)c1`: the MIC against Moraxella catarrhalis [1] is below 0.125 µg/mL; with Streptococcus pneumoniae [2] it was 0.25 µg/mL (≈ 0.494 µM); against Haemophilus influenzae [3] it was below 2 µg/mL. For the same compound, the IC50 against Peptide deformylase worked out at 2 nM.
`CCCC[C@H](CN(O)C=O)C(=O)N[C@H](C(=O)c1ccc(N2CCOCC2)cc1)C(C)(C)C`: it took 5 nM to reach half-maximal inhibition against Peptide deformylase (IC50).
On to `CC(C)(C)[C@H](NC(=O)[C@H](CC1CCCC1)CN(O)C=O)C(=O)c1ccc(N2CCC[C@H]2CO)cc1`, for which the figures for the MIC in the assay on Haemophilus influenzae [4], in the assay on Moraxella catarrhalis [1] and against Streptococcus pneumoniae [5] were below 2 µg/mL, below 0.125 µg/mL and below 0.25 µg/mL, respectively. Further, at Peptide deformylase, inhibition was half-maximal at 7 nM (IC50).
For the compound `CC(C)(C)[C@H](NC(=O)[C@H](CC1CCCC1)CN(O)C=O)C(=O)c1cc(F)c(F)cc1N1CCN(CCO)CC1`, the MIC was below 2 µg/mL with Haemophilus influenzae [4], below 0.125 µg/mL in the assay with Moraxella catarrhalis [1] and below 1 µg/mL against Streptococcus pneumoniae [6]. For the same compound, the IC50 against Peptide deformylase came to 2 nM.
`CC(C)(C)[C@H](NC(=O)[C@H](CC1CCCC1)CN(O)C=O)C(=O)c1ccc(N2CCN(CCN3CCOCC3)CC2)cc1`: the MIC was below 2 µg/mL against Haemophilus influenzae [7], below 0.125 µg/mL against Moraxella catarrhalis [1] and below 0.5 µg/mL against Streptococcus pneumoniae [8]. This compound also yielded an IC50 against Peptide deformylase of 2 nM.
On to `CCCC[C@H](CN(O)C=O)C(=O)N[C@H](C(=O)c1ccc(N)cc1)C(C)(C)C`, for which the IC50 at Peptide deformylase is 8 nM. The MIC against Staphylococcus capitis was 12 µM (≈ 4.53 µg/mL).
Take `CC(C)(C)[C@H](NC(=O)[C@H](CC1CCCC1)CN(O)C=O)C(=O)c1cc(F)c(F)cc1N1CCC[C@H]1CO`: the MIC was below 2 µg/mL in the assay with Haemophilus influenzae [7], below 0.125 µg/mL against Moraxella catarrhalis [1] and 0.25 µg/mL (≈ 0.477 µM) against Streptococcus pneumoniae [2].
The compound `CCCC[C@H](CN(O)C=O)C(=O)N[C@H](C(=O)c1ccco1)C(C)(C)C` registered an IC50 against Peptide deformylase of 5 nM.
The same measure, in the same setting: as for `CCCC[C@H](CN(O)C=O)C(=O)N[C@H](C(=O)c1ccc(O)cc1)C(C)(C)C`, the figure is 8 nM.
For the compound `CC(C)(C)[C@H](NC(=O)[C@H](CC1CCCC1)CN(O)C=O)C(=O)c1cc(F)c(F)cc1N1CCN(CCN2CCCC2)CC1`, the MIC in the assay with Haemophilus influenzae [9] is below 4 µg/mL; with Moraxella catarrhalis [10] it was below 0.25 µg/mL; against Streptococcus pneumoniae [8] it was below 0.5 µg/mL. This compound also showed an IC50 at Peptide deformylase of 2 nM.
On to `CC(C)(C)[C@H](NC(=O)[C@H](CC1CCCC1)CN(O)C=O)C(=O)c1cc(F)c(F)cc1N1CCN(CCN2CCOCC2)CC1`, for which the MIC in the assay with Haemophilus influenzae [11] is below 4 µg/mL; against Moraxella catarrhalis [12], below 0.25 µg/mL; against Streptococcus pneumoniae [13], below 1 µg/mL. For the same compound, the IC50 at Peptide deformylase is 2 nM.
Turning to `CC(C)(C)[C@H](NC(=O)[C@H](CC1CCCC1)CN(O)C=O)C(=O)c1ccc(N2CCC[C@H]2CO)c(F)c1`, the MIC against Moraxella catarrhalis [1] was below 0.125 µg/mL; in the assay on Streptococcus pneumoniae [2], 0.25 µg/mL (≈ 0.494 µM); against Haemophilus influenzae [3], below 2 µg/mL. On Peptide deformylase, this compound showed an IC50 of 2 nM.
Take `CC(C)(C)[C@H](NC(=O)[C@H](CC1CCCC1)CN(O)C=O)C(=O)c1ccc(N2CCN(CCN3CCOCC3)CC2)c(F)c1`: the MIC in the assay with Haemophilus influenzae [14] was below 4 µg/mL; with Moraxella catarrhalis [1], 0.125 µg/mL (≈ 0.207 µM); against Streptococcus pneumoniae [8], below 0.5 µg/mL. In addition, the IC50 at Peptide deformylase is 6 nM.
Regarding `CC(C)(C)[C@H](NC(=O)[C@H](CC1CCCC1)CN(O)C=O)C(=O)c1ccc(N2CCN(CCN3CCCC3)CC2)cc1`, the MIC was below 2 µg/mL in the assay on Haemophilus influenzae [7], below 0.25 µg/mL against Moraxella catarrhalis [12] and below 0.5 µg/mL in the assay with Streptococcus pneumoniae [15]. The same compound had an IC50 against Peptide deformylase of 3 nM.
In the case of `CCCC[C@H](CN(O)C=O)C(=O)N[C@H](C(=O)c1ccc(C#N)cc1)C(C)(C)C`, the MIC in the assay with Escherichia coli turned out to be 6.25 µM (≈ 2.42 µg/mL); with Staphylococcus capitis, 3.1 µM (≈ 1.2 µg/mL). Moreover, inhibition on Peptide deformylase was half-maximal at 7 nM (IC50).
As for `CCCC[C@H](CN(O)C=O)C(=O)N[C@H](C(=O)c1ccc(NC(=O)C(F)(F)F)cc1)C(C)(C)C`, half-maximal inhibition against Peptide deformylase (IC50) was put at 20 nM.
For `CCCC[C@H](CN(O)C=O)C(=O)N[C@H](C(C)=O)C(C)(C)C`, the figures for the MIC with Escherichia coli and in the assay with Staphylococcus capitis were 25 µM (≈ 7.51 µg/mL) and 100 µM (≈ 30 µg/mL), respectively.
With `O=C(O)c1cn(C2CC2)c2cc(N3CCNCC3)c(F)cc2c1=O` [CIPROFLOXACIN], the MIC90 against Haemophilus influenzae [16] was determined as 0.015 µg/mL (≈ 0.0453 µM); in the assay on Moraxella catarrhalis [17], 0.06 µg/mL (≈ 0.181 µM); against Streptococcus pneumoniae [18], 8 µg/mL (≈ 24.1 µM).
Regarding `CC1(C)S[C@@H]2[C@H](NC(=O)Cc3ccccc3)C(=O)N2[C@H]1C(=O)[O-].[Na+]` [PENICILLIN G SODIUM], the MIC90 in the assay with Streptococcus pneumoniae [19] is 1 µg/mL.
